Several values for one entry are separate records, joined by “and”; a condition that tells them apart may be missing. Identical values can stand only once.
Key:
[1] = Storage stability of FP-CIT linear precursor in storage solvent (purity over 12 months by HPLC analysis); type: physicochemical
Description: HPLC analysis was carried out using the same experimental method and analytic conditions as in Example 1-1, except that the storage temperature was -20°C. […] The purity of the FP-CIT linear precursor over time is summarized in FIG. 4 and the following Table 3.
HPLC analysis was carried out using the same experimental method and analytic conditions as in Example 1-1, except that the storage concentration was 8 mg/mL. […] The purity of the FP-CIT linear precursor over time is summarized in FIG. 5 and the following Table 4.
HPLC analysis was carried out using the same experimental method and analytic conditions as in Example 3-1, except that the storage temperature was -20°C. […] The purity of the FP-CIT linear precursor over time is summarized in FIG. 5 and the following Table 4.

[2] = cited from earlier work

COC(=O)C1C(c2ccc(I)cc2)CC2CCC1N2CCCOS(C)(=O)=O (stereo not drawn) [FP-CIT linear precursor]
purity of the FP-CIT linear precursor ([1]; CHCl3, 1 mg/mL, -20°C, 0 months (start of storage assumed 100%)): 100.0% | purity of the FP-CIT linear precursor ([1]; CHCl3, 1 mg/mL, -20°C, 3 months): 79.4% | purity of the FP-CIT linear precursor ([1]; CHCl3, 1 mg/mL, -20°C, 5 months): 65% and 65.1% | purity of the FP-CIT linear precursor ([1]; CHCl3, 1 mg/mL, -20°C, 7 months): 57.1% | purity of the FP-CIT linear precursor ([1]; CHCl3, 1 mg/mL, -20°C, 9 months): 53.2% | purity of the FP-CIT linear precursor ([1]; CHCl3, 1 mg/mL, room temperature, 0 months (start of storage assumed 100%)): 100.0% | purity of the FP-CIT linear precursor ([1]; CHCl3, 1 mg/mL, room temperature, 3 months): 60.4% | purity of the FP-CIT linear precursor ([1]; CHCl3, 1 mg/mL, room temperature, 7 months): 2.2% | purity of the FP-CIT linear precursor ([1]; CHCl3, 1 mg/mL, room temperature, 9 months): 0.7% | purity of the FP-CIT linear precursor ([1]; DCM, 1 mg/mL, -20°C, 0 months (start of storage assumed 100%)): 100.0% | purity of the FP-CIT linear precursor ([1]; DCM, 1 mg/mL, -20°C, 3 months): 93.5% | purity of the FP-CIT linear precursor ([1]; DCM, 1 mg/mL, -20°C, 7 months): 73.2% | purity of the FP-CIT linear precursor ([1]; DCM, 1 mg/mL, -20°C, 9 months): 71.3% | purity of the FP-CIT linear precursor ([1]; DCM, 1 mg/mL, room temperature, 0 months (start of storage assumed 100%)): 100.0% | purity of the FP-CIT linear precursor ([1]; DCM, 1 mg/mL, room temperature, 3 months): 47.0% | purity of the FP-CIT linear precursor ([1]; DCM, 1 mg/mL, room temperature, 5 months): 34% and 34.2% | purity of the FP-CIT linear precursor ([1]; DCM, 1 mg/mL, room temperature, 7 months): 30.9% | purity of the FP-CIT linear precursor ([1]; DCM, 1 mg/mL, room temperature, 9 months): 13.1% | purity of the FP-CIT linear precursor ([1]; EA, 1 mg/mL, -20°C, 0 months (start of storage assumed 100%)): 100.0% | purity of the FP-CIT linear precursor ([1]; EA, 1 mg/mL, -20°C, 1 month): 97.5% | purity of the FP-CIT linear precursor ([1]; EA, 1 mg/mL, -20°C, 3 months): 97.4% | purity of the FP-CIT linear precursor ([1]; EA, 1 mg/mL, -20°C, 5 months): 96.7% | purity of the FP-CIT linear precursor ([1]; EA, 1 mg/mL, -20°C, 7 months): 96.4% | purity of the FP-CIT linear precursor ([1]; EA, 1 mg/mL, -20°C, 9 months): 96.4% | purity of the FP-CIT linear precursor ([1]; EA, 1 mg/mL, room temperature, 0 months (start of storage assumed 100%)): 100.0% | purity of the FP-CIT linear precursor ([1]; EA, 1 mg/mL, room temperature, 3 months): 91.2% | purity of the FP-CIT linear precursor ([1]; EA, 1 mg/mL, room temperature, 7 months): 39.8% | purity of the FP-CIT linear precursor ([1]; EA, 1 mg/mL, room temperature, 9 months): 28.4% | purity of the FP-CIT linear precursor ([1]; EA, 8 mg/mL, -20°C, 0 months (start of storage assumed 100%)): 100.0% | purity of the FP-CIT linear precursor ([1]; EA, 8 mg/mL, -20°C, 1 month): 99.3% | purity of the FP-CIT linear precursor ([1]; EA, 8 mg/mL, -20°C, 3 months): 99.0% | purity of the FP-CIT linear precursor ([1]; EA, 8 mg/mL, -20°C, 7 months): 96.7% | purity of the FP-CIT linear precursor ([1]; EA, 8 mg/mL, -20°C, 9 months): 96.4% | purity of the FP-CIT linear precursor ([1]; EA, 8 mg/mL, room temperature, 0 months (start of storage assumed 100%)): 100.0% | purity of the FP-CIT linear precursor ([1]; EA, 8 mg/mL, room temperature, 3 months): 64.3% | purity of the FP-CIT linear precursor ([1]; EA, 8 mg/mL, room temperature, 5 months): 43% and 43.3% | purity of the FP-CIT linear precursor ([1]; EA, 8 mg/mL, room temperature, 7 months): 16.2% | purity of the FP-CIT linear precursor ([1]; EA, 8 mg/mL, room temperature, 9 months): 13.5% | purity of the FP-CIT linear precursor ([1]; THF, 1 mg/mL, -20°C, 0 months (start of storage assumed 100%)): 100.0% | purity of the FP-CIT linear precursor ([1]; THF, 1 mg/mL, -20°C, 1 month): 98.0% | purity of the FP-CIT linear precursor ([1]; THF, 1 mg/mL, -20°C, 3 months): 96.7% | purity of the FP-CIT linear precursor ([1]; THF, 1 mg/mL, -20°C, 7 months): 95.1% | purity of the FP-CIT linear precursor ([1]; THF, 1 mg/mL, -20°C, 9 months): 94.7% | purity of the FP-CIT linear precursor ([1]; THF, 1 mg/mL, room temperature, 0 months (start of storage assumed 100%)): 100.0% | purity of the FP-CIT linear precursor ([1]; THF, 1 mg/mL, room temperature, 3 months): 89.9% | purity of the FP-CIT linear precursor ([1]; THF, 1 mg/mL, room temperature, 7 months): 56.6% | purity of the FP-CIT linear precursor ([1]; THF, 1 mg/mL, room temperature, 9 months): 25.6% | purity of the FP-CIT linear precursor ([1]; THF, 8 mg/mL, -20°C, 0 months (start of storage assumed 100%)): 100.0% | purity of the FP-CIT linear precursor ([1]; THF, 8 mg/mL, -20°C, 1 month): 98.8% | purity of the FP-CIT linear precursor ([1]; THF, 8 mg/mL, -20°C, 3 months): 97.5% | purity of the FP-CIT linear precursor ([1]; THF, 8 mg/mL, -20°C, 7 months): 94.7% | purity of the FP-CIT linear precursor ([1]; THF, 8 mg/mL, -20°C, 9 months): 94.4% | purity of the FP-CIT linear precursor ([1]; THF, 8 mg/mL, -20°C, 12 months): 89% and 89.7% | purity of the FP-CIT linear precursor ([1]; THF, 8 mg/mL, room temperature, 0 months (start of storage assumed 100%)): 100.0% | purity of the FP-CIT linear precursor ([1]; THF, 8 mg/mL, room temperature, 3 months): 72.9% | purity of the FP-CIT linear precursor ([1]; THF, 8 mg/mL, room temperature, 5 months): 30% and 30.4% | purity of the FP-CIT linear precursor ([1]; THF, 8 mg/mL, room temperature, 7 months): 5.5% | purity of the FP-CIT linear precursor ([1]; THF, 8 mg/mL, room temperature, 9 months): 5.5%

ClCCl [Dichloromethane (DCM), Dichloromethane]
Water solubility (g/100 mL, 20°C) [2]: 1.6 g/100 mL

CCOC(C)=O [Ethyl acetate (EA), Ethyl acetate]
Water solubility (g/100 mL, 20°C) [2]: 8.3 g/100 mL

From EP4786470A1, “METHOD FOR S[…]-CIT LINEAR PRECURSOR WITH HIGH PURITY, AND METHOD FOR PREPARING [18F]FP-CIT BY USING SAME” (The Asan Foundation, priority 2023, dated 2025)
